In patent US20060159732A1, “Antioxidant wound dressing materials” (priority 2003, published 2006):

Columns and labels:
[1] = test system: Pseudomonas aeruginosa (ATCC 27853 and various PSI strains); experiment: Zone of inhibition test (Procedure 2) on Pseudomonas aeruginosa; assay type: cell-based; conditions: DSA plates, 37° C., every 24 hours over the test period (72 hours)
Procedure: (§1) Six 2 cm×2 cm squares of each sample are cut out in sterile conditions. On day one of the experiment, cultures of both Pseudomonas aeruginosa (ATCC 27853 and various PSI strains) and Staphylococcus aureus (provided by the Dept of Clinical Microbiology and Pathology) are incubated aerobically at 37° C. for 24 hours on Diagnostic Sensitivity Agar (DSA). After 24 hours test samples are each placed on a DSA plate and immediately wetted with 0.5 mls of a buffer solution. Three squares of sample are placed on plates inoculated with Pseudomonas aeruginosa and three are placed on plates inoculated with Staphylococcus aureus. The plates are then incubated at 37° C. for 24 hours. The zone of inhibited growth around the sample is then measured using calipers, and the test sample is placed on a new inoculated DSA plate. A swab test is carried out on the area beneath the sample to determine if the sample is bacteriostatic if not bactericidal by smearing the swab on a DSA plate and incubating it for 24 hours and then examining the growth.

Staphylococcus aureus = experiment: Zone of inhibition test (Procedure 2) on Staphylococcus aureus; assay type: cell-based; conditions: DSA plates, 37° C., every 24 hours over the test period (72 hours)
Procedure: as §1

[2] = DPPH test (Procedure 1), free radical / antioxidant activity; conditions: positive control at 10^-4M; percentage reduction of absorbance at 524 nm relative to the control after 4 hours
Procedure: Preferably, the material according to the present invention has a free radical activity, that is to say an antioxidant activity, of at least about 15% in the diphenylpicrylhydrazyl (DPPH) test, measured as percentage reduction in absorbance at 524 nm after 4 hours of a 0.5% w/v dispersion of the polysaccharide in 10^−4M DPPH, as described further hereinbelow in Procedure 1. Preferably the percentage reduction in absorbance in the DPPH test (after correction for any absorbance by the dye) is at least about 25%, more preferably at least about 50%, and most preferably at least about 75%.
The ability of the wound dressing materials to react with and remove oxygen containing free radicals is assessed by the DPPH test described in WO94/13333, the entire content of which is expressly incorporated herein by reference. […]
Briefly, the wound dressing material under test (2.5 mg; 5 mg; & 25 mg sample sizes) was suspended in 2.5 ml of 0.1M pH 7.0 phosphate buffer. […] The samples were assessed by measurement of their light absorbance at 524 nm over 6 hours in comparison with a control, particular attention being paid to the figure after 4 hours. The percentage reduction of absorbance relative to the control after 4 hours gives the DPPH test value, with a reproducibility generally of ±5%. […]

SMILES: O=[N+]([O-])[O-].[Ag+] [silver nitrate solution (0.5%), silver nitrate]
- zone of inhibition [1]: zones of inhibition were observed
- zone of inhibition (Staphylococcus aureus): zones of inhibition were observed

SMILES: O=C1O[C@H]([C@@H](O)CO)C(O)=C1O [positive control, Ascorbic acid]
- DPPH test value [2]: 80-90%
